Values after ≈ are worked out from the molar mass of the structure shown. “Also recorded” adds a separate entry of the source.
Legend:
M. tuberculosis (H37Rv) = experiment: BACTEC radiometric MIC determination against M. tuberculosis; type: cell-based; settings: Mycobacterium tuberculosis, read-out: MIC against M.tb
[1] = Pro-drug decomposition at acid and physiologic pH; type: physicochemical
Protocol: At physiologic pH (or about 7.5), the molecule slowly breaks down (with a half-time of about 15 hours) to release DSA. This property would enhance the prolonged maintenance of plasma concentrations of the active drug. The MICs of these pro-drug molecules are 6.25 μg/ml (for the 10 carbon compound) and 12.5 μg/ml (for the 8 carbon compound).

M. bovis BCG = experiment: microbe, parasite or virus in culture; type: cell-based, Mycobacterium bovis BCG; settings: for MIC: Mycobacterium tuberculosis variant bovis BCG, BCG, read-out: minimum inhibitory concentration (MIC)
[2] = tested on: M. avium subspecies paratuberculosis (PTB); experiment: BACTEC inhibition of PTB (paratuberculosis); type: cell-based, Mycobacterium avium subspecies paratuberculosis; settings: for activity against PTB (BACTEC growth index over time): single agents at the highest concentration
Excerpt: The MIC was defined as the lowest inhibitor concentration that yielded a growth index change less than that of the 1:100 control bottle. A modification of this protocol was used for MIC determinations of MAC and M. avium subspecies paratuberculosis (Parrish, 2004). Susceptibilities and MIC determinations of M. tuberculosis isolates to isoniazid, streptomycin, ethambutol, rifampin, and pyrazinamide were done using standard BACTEC methods (Siddiqi, 1992). All primary drugs were purchased from Becton Dickinson (Sparks, Md.).
The inhibition assay was performed essentially as described in Example 1 for TB and BCG. Briefly, PTB inoculum was standardized by use of “seed vials” of a suspension of microorganisms in supplemented media. The suspension was vortexed with glass beads and then 0.3 ml to 0.5 ml was introduced into individual supplemented BACTEC 12B vials. Vials were subsequently incubated at 37° C. and the GI recorded until reaching 999. At that time, 0.3 ml of the “seed vial” was introduced into test and compound containing vials. Vials were then read at 24-hour intervals and the rest of the procedure followed as for TB and BCG. The MIC determination was the same as for TB and BCG.

mycobacteria = experiment: In vitro sterilizing model; type: cell-based
[3] = tested on: latent (hypoxic) mycobacteria; experiment: Killing of latent (hypoxic) mycobacteria in vitro; type: cell-based
[4] = agent alone at 1.5 μg/ml (FIG. 1, FIG. 2)
[5] = agent alone, DSA at 1/2, 1/4, or 1/8 of the MIC, NSA or OSA at the same concentrations as DSA (FIG. 1)
[6] = PTB strain #2, combination at 12.5 or 25.0 μg/ml each (FIG. 5)
[7] = PTB strain #4, combination at 12.5 or 25.0 μg/ml each (FIG. 6)
[8] = PTB strain #8, combination at 12.5 or 25.0 μg/ml each (FIG. 7)
[9] = PTB strain #15, combination at 12.5 or 25.0 μg/ml each (FIG. 9)
[10] = PTB strain #13, combination at 12.5 or 25.0 μg/ml each (FIG. 8)

Structure (SMILES)	MIC (M. tuberculosis (H37Rv)) [µg/mL]	decomposition in acid pH ([1]; acid pH)	half-time of breakdown to release DSA ([1]; physiologic pH (or about 7.5))	MIC (M. bovis BCG) [µg/mL]	inhibition of growth of M. bovis BCG cells (M. bovis BCG; [4])	inhibition of growth of M. bovis BCG cells (M. bovis BCG; [5])	MIC ([2]; Mycobacterium avium, agent alone (FIGS. 4-9), read-out: MIC, various strains of PTB) [µg/mL]	activity against PTB (BACTEC growth index over time) [2, 6]	activity against PTB (BACTEC growth index over time) [2, 7]	activity against PTB (BACTEC growth index over time) [2, 8]	activity against PTB (BACTEC growth index over time) [2, 9]	activity in an in vitro sterilizing model (mycobacteria)	killing of latent (hypoxic) mycobacteria in vitro [3]	activity against PTB (BACTEC growth index over time) [2, 10]	MIC, various strains of PTB ([2]; agent alone (FIGS. 4-9))
CCCCCCCCCCS(=O)(=O)CC(=O)NCN1CCOCC1 [10 carbon compound]	6.25 (≈ 17.2 µM)	resists decomposition	about 15 hours												
CCCCCCCCCCS(=O)(=O)CC(N)=O [DSA, n-decanesulphonylacetamide]	~1 (≈ 3.8 µM)			1.5 (≈ 5.69 µM)	some activity; also recorded: inhibit the growth	no effect	≥ 25	some activity	some activity	some activity	some activity	active	kill latent (hypoxic) mycobacteria		
CCCCCCCCCS(=O)(=O)CC(N)=O [NSA, n-nonanesulphonylacetamide]				3 (≈ 12 µM)	ineffective	no effect		some activity	some activity	some activity	some activity			some activity	considerably higher
CCCCCCCCS(=O)(=O)CC(N)=O [OSA, n-octanesulphonylacetamide]				6.25 (≈ 26.6 µM)	ineffective	no effect		no activity	no activity	no activity	no activity			no activity	considerably higher
